Test results reported in PubChem BioAssay (NCI).
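Test compounds were applied to cells in 96-well plates for 48 hours at 5 doses. At the TGI there is no net growth.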

How the values were obtained:
Experiment in all cases: NCI tumour cell line growth inhibition, 48 h
HOP-18 NSCLC = tested on: HOP-18 NSCLC
LXFL 529 NSCLC = tested on: LXFL 529 NSCLC
DMS 273 small cell lung = tested on: DMS 273 small cell lung
P388 leukemia = tested on: P388 leukemia
P388/ADR leukemia = tested on: P388/ADR leukemia
SN12K1 renal = tested on: SN12K1 renal
RXF-631 renal = tested on: RXF-631 renal

| Structure (SMILES) | TGI (HOP-18 NSCLC) | TGI (LXFL 529 NSCLC) | TGI (DMS 273 small cell lung) | TGI (P388 leukemia) | TGI (P388/ADR leukemia) | TGI (SN12K1 renal) | TGI (RXF-631 renal) |
| --- | --- | --- | --- | --- | --- | --- | --- |
| Nc1ccccc1Sc1ccc(Cl)cc1 | > 100 µM | > 100 µM | 72.5 µM | – | – | – | – |
| O=C(c1ccc(Cl)cc1)N(C(=S)N1CCN(c2ccccc2)CC1)c1ccccc1 | > 100 µM | > 100 µM | > 100 µM | – | – | – | – |
| CC(=O)/C=C/c1c[nH]c(=O)[nH]c1=O | – | – | 324 µM | 718 µM | 893 µM | 341 µM | – |
| CC1=CC[C@H](C)C(C)(C)C1/C=C/C(C)=C/CC[C@@]1(CO)[C@H](CCCO)/C(=C(/C)C=O)CC[C@]1(C)O (stereo not given in full) | 28.9 µM | 20.2 µM | 13.9 µM | – | – | – | – |
| CCCC(=O)N[C@@H](Cc1cc(I)c(O)c(I)c1)C(=O)NCCCNCCCCNCCCNC(=O)[C@@H](N)CCCN=C(N)N | – | > 100 µM | > 100 µM | – | – | – | – |
| COc1cccc(NC(=O)N/C(=C/c2ccc(N(CCC#N)CCC#N)cc2)NC(=O)c2cc([N+](=O)[O-])ccc2Cl)c1 | > 100 µM | > 100 µM | > 100 µM | – | – | – | > 100 µM |
| C/C(=C1/N=C(c2cc([N+](=O)[O-])ccc2Cl)N(C2=CC=C(Cl)CC2)C1=O)c1cc2ccccc2oc1=O | > 100 µM | > 100 µM | – | – | – | – | > 100 µM |
| CCCN(CCC)C(=O)Cc1c2n(c3ccccc13)Cc1ccccc1-2 | > 100 µM | > 100 µM | > 100 µM | – | – | – | – |
| CNC=O | > 10000 µM | – | > 10000 µM | > 5620 µM | > 10000 µM | > 10000 µM | – |
